# Assay results published in PMC6886798, “Expression of myeloid Src-family kinases is associated with poor prognosis in AML and influences Flt3-ITD kinase inhibitor acquired resistance” (PLoS ONE, 2019).
# How the values were obtained:
# [1] = test system: MV4-11, MOLM13 and MOLM14 parent and A-419259-resistant cell populations; assay: CellTiter-Blue cell viability, parent and resistant AML populations as a group; type: cell-based, human
# Protocol: (§1) Cell viability was assessed using the CellTiter-Blue reagent according to the manufacturer’s instructions (Promega). Fluorescence intensity, which correlates directly with viable cell number, was measured using a SpectraMax M5 microplate reader. Each experiment included three technical replicates per condition, and each experiment was repeated at least three times. […] Viability of each cell population was measured three times per week using the CellTiter-Blue assay.
# [2] = test system: MOLM14 R2 (A-419259-resistant population); assay: CellTiter-Blue cell viability; type: cell-based, human; conditions: Homo sapiens, MOLM-14, S11 Fig, read-out: PRT062607 IC50, nM (growth suppression)
# Protocol: as §1
# [3] = test system: MOLM14 R3 (A-419259-resistant population); assay: CellTiter-Blue cell viability; type: cell-based, human; conditions: Homo sapiens, MOLM-14, S11 Fig, read-out: PRT062607 IC50, nM (growth suppression)
# Protocol: as §1
# [4] = test system: MV4-11 R3 (A-419259-resistant population); assay: CellTiter-Blue cell viability; type: cell-based, human; conditions: Homo sapiens, S11 Fig, read-out: PRT062607 IC50, nM (growth suppression)
# Protocol: as §1
# [5] = test system: MV4-11 R2 (A-419259-resistant population); assay: CellTiter-Blue cell viability; type: cell-based, human; conditions: Homo sapiens, S11 Fig, read-out: PRT062607 IC50, nM (growth suppression)
# Protocol: as §1
# [6] = test system: MOLM14 R1 (A-419259-resistant population); assay: CellTiter-Blue cell viability; type: cell-based, human; conditions: Homo sapiens, MOLM-14, S11 Fig, read-out: PRT062607 IC50, nM (growth suppression)
# Protocol: as §1
# [7] = test system: MOLM13 R3 (A-419259-resistant population); assay: CellTiter-Blue cell viability; type: cell-based, human; conditions: Homo sapiens, MOLM-13, S11 Fig, read-out: PRT062607 IC50, nM (growth suppression)
# Protocol: as §1
# MOLM13 cells (parent) = assay: CellTiter-Blue cell viability; type: cell-based, human; conditions: Homo sapiens, MOLM-13, S11 Fig, read-out: PRT062607 IC50, nM (growth suppression)
# Protocol: (§2) Gibco/ThermoFisher). Parental TF-1 cells also require recombinant human GM-CSF (1 ng/mL; ThermoFisher). MOLM13 and MOLM14 cells were obtained from Leibniz Institute Deutsche Sammlung von Mikroorganismen (DSMZ) and grown in RPMI 1640 medium containing 20% FBS and Antibiotic-Antimycotic. […] Cell viability was assessed using the CellTiter-Blue reagent according to the manufacturer’s instructions (Promega). Fluorescence intensity, which correlates directly with viable cell number, was measured using a SpectraMax M5 microplate reader. Each experiment included three technical replicates per condition, and each experiment was repeated at least three times.
# MOLM14 cells (parent) = assay: CellTiter-Blue cell viability; type: cell-based, human; conditions: Homo sapiens, MOLM-14, S11 Fig, read-out: PRT062607 IC50, nM (growth suppression)
# Protocol: as §2
# MV4-11 cells (parent) = assay: CellTiter-Blue cell viability; type: cell-based, human; conditions: Homo sapiens; S11 Fig; MV4-11 Parent; read-out: PRT062607 IC50, nM (growth suppression)
# Protocol: as §2
# [8] = test system: myeloid Src-family kinases; set-up: method as in S. Hellwig and T. Smithgall, unpublished data; conditions: ref S. Hellwig and T. Smithgall, unpublished data; cited from earlier work
# Fgr T338L = biological target: T1, Fgr T338L (Homo sapiens, UniProt P09769, T334L); assay: Z'-LYTE in vitro kinase assay; type: biochemical; conditions: Tyr-2 peptide 1.0 μM, read-out: ATP Km
# T1 construct: Recombinant near-full-length kinases, consisting of the SH2, SH3 and kinase domains plus the negative regulatory tail; made in house; host or cells: E. coli BL21Star (DE3), co-expressed with Csk and PTP1B
# Protocol: (§3) Assays were performed in quadruplicate in 384-well low volume, non-binding, black polystyrene microplates (Corning) according to the manufacturer’s instructions. Briefly, this assay measures phosphorylation of the Tyr2 peptide substrate which is tagged with coumarin and fluorescein on its N- and C-termini, respectively, to form a FRET pair. After the kinase reaction, a development step involves site-specific proteolytic cleavage of the unphosphorylated but not the phosphorylated peptide. […] Kinase reactions were run in 50 mM HEPES, pH 7.5, 10 mM MgCl2, 1 mM EGTA, and 0.01% BRIJ-35 (buffer supplied by the manufacturer). […] Following incubation for 1 h at ambient temperature, reactions were quenched by addition of the development protease, and coumarin and fluorescein fluorescence were measured 1 h later on a Molecular Devices SpectraMax M5 plate reader. […] For experiments with inhibitors, compounds were preincubated with kinase for 30 min prior to initiation of the reaction by the addition of ATP.
# Lyn T338M = biological target: T2, Lyn T338M (Homo sapiens, UniProt P07948, T319M); assay: Z'-LYTE in vitro kinase assay; type: biochemical; conditions: Tyr-2 peptide 1.0 μM, read-out: ATP Km
# T2 construct: Recombinant near-full-length kinases, consisting of the SH2, SH3 and kinase domains plus the negative regulatory tail; made in house; host or cells: E. coli BL21Star (DE3), co-expressed with Csk and PTP1B
# Hck T338F = biological target: T3, Hck T338F (Homo sapiens, UniProt P08631, T333F); assay: Z'-LYTE in vitro kinase assay; type: biochemical; conditions: Hck T338F; Tyr-2 peptide 1.0 μM; read-out: ATP Km
# T3 construct: Recombinant near-full-length kinases, consisting of the SH2, SH3 and kinase domains plus the negative regulatory tail; made in house; host or cells: E. coli BL21Star (DE3), co-expressed with Csk and PTP1B
# Hck T338M = biological target: T4, Hck T338M (Homo sapiens, UniProt P08631, T333M); assay: Z'-LYTE in vitro kinase assay; type: biochemical; conditions: Hck T338M; Tyr-2 peptide 1.0 μM; read-out: ATP Km
# T4 construct: Recombinant near-full-length kinases, consisting of the SH2, SH3 and kinase domains plus the negative regulatory tail; made in house; host or cells: E. coli BL21Star (DE3), co-expressed with Csk and PTP1B
# Lyn T338F = biological target: T5, Lyn T338F (Homo sapiens, UniProt P07948, T319F); assay: Z'-LYTE in vitro kinase assay; type: biochemical; conditions: Tyr-2 peptide 1.0 μM, read-out: ATP Km
# T5 construct: Recombinant near-full-length kinases, consisting of the SH2, SH3 and kinase domains plus the negative regulatory tail; made in house; host or cells: E. coli BL21Star (DE3), co-expressed with Csk and PTP1B
# Fgr wild-type = biological target: T6, Fgr wild-type (Homo sapiens, UniProt P09769); assay: Z'-LYTE in vitro kinase assay; type: biochemical; conditions: Tyr-2 peptide 1.0 μM, read-out: ATP Km
# T6 construct: Recombinant near-full-length kinases, consisting of the SH2, SH3 and kinase domains plus the negative regulatory tail; made in house; host or cells: E. coli BL21Star (DE3), co-expressed with Csk and PTP1B
# Protocol: as §3
# Fgr T338F = biological target: T7, Fgr T338F (Homo sapiens, UniProt P09769, T334F); assay: Z'-LYTE in vitro kinase assay; type: biochemical; conditions: Fgr T338F; Tyr-2 peptide 1.0 μM; read-out: ATP Km
# T7 construct: Recombinant near-full-length kinases, consisting of the SH2, SH3 and kinase domains plus the negative regulatory tail; made in house; host or cells: E. coli BL21Star (DE3), co-expressed with Csk and PTP1B
# Protocol: as §3
# Hck wild-type = biological target: T8, Hck wild-type (Homo sapiens, UniProt P08631); assay: Z'-LYTE in vitro kinase assay; type: biochemical; conditions: Tyr-2 peptide 1.0 μM, read-out: ATP Km
# T8 construct: Recombinant near-full-length kinases, consisting of the SH2, SH3 and kinase domains plus the negative regulatory tail; made in house; host or cells: E. coli BL21Star (DE3), co-expressed with Csk and PTP1B
# Fgr T338M = biological target: T9, Fgr T338M (Homo sapiens, UniProt P09769, T334M); assay: Z'-LYTE in vitro kinase assay; type: biochemical; conditions: Fgr T338M; Tyr-2 peptide 1.0 μM; read-out: ATP Km
# T9 construct: Recombinant near-full-length kinases, consisting of the SH2, SH3 and kinase domains plus the negative regulatory tail; made in house; host or cells: E. coli BL21Star (DE3), co-expressed with Csk and PTP1B
# Protocol: as §3
# Lyn T338L = biological target: T10, Lyn T338L (Homo sapiens, UniProt P07948, T319L); assay: Z'-LYTE in vitro kinase assay; type: biochemical; conditions: Tyr-2 peptide 1.0 μM, read-out: ATP Km
# T10 construct: Recombinant near-full-length kinases, consisting of the SH2, SH3 and kinase domains plus the negative regulatory tail; made in house; host or cells: E. coli BL21Star (DE3), co-expressed with Csk and PTP1B
# Lyn wild-type = biological target: T11, Lyn wild-type (Homo sapiens, UniProt P07948); assay: Z'-LYTE in vitro kinase assay; type: biochemical; conditions: Tyr-2 peptide 1.0 μM, read-out: ATP Km
# T11 construct: Recombinant near-full-length kinases, consisting of the SH2, SH3 and kinase domains plus the negative regulatory tail; made in house; host or cells: E. coli BL21Star (DE3), co-expressed with Csk and PTP1B
# Hck T338L = biological target: T12, Hck T338L (Homo sapiens, UniProt P08631, T333L); assay: Z'-LYTE in vitro kinase assay; type: biochemical; conditions: Hck T338L; Tyr-2 peptide 1.0 μM; read-out: ATP Km
# T12 construct: Recombinant near-full-length kinases, consisting of the SH2, SH3 and kinase domains plus the negative regulatory tail; made in house; host or cells: E. coli BL21Star (DE3), co-expressed with Csk and PTP1B
# T12 sequence (P08631 78-526 T333L limits assumed): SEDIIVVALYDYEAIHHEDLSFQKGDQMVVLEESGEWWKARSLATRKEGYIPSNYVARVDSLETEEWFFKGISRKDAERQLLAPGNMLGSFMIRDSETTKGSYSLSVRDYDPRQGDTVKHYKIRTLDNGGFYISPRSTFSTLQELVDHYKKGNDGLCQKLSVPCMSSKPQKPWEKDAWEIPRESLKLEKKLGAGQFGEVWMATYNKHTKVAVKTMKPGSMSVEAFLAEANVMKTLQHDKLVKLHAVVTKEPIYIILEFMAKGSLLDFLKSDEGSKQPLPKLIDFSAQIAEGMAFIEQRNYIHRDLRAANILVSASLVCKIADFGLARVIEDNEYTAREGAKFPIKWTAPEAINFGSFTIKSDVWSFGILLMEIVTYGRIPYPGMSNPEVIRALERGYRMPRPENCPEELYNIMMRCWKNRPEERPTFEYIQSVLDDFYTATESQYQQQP
# T2 sequence (P07948 63-512 T319M limits assumed): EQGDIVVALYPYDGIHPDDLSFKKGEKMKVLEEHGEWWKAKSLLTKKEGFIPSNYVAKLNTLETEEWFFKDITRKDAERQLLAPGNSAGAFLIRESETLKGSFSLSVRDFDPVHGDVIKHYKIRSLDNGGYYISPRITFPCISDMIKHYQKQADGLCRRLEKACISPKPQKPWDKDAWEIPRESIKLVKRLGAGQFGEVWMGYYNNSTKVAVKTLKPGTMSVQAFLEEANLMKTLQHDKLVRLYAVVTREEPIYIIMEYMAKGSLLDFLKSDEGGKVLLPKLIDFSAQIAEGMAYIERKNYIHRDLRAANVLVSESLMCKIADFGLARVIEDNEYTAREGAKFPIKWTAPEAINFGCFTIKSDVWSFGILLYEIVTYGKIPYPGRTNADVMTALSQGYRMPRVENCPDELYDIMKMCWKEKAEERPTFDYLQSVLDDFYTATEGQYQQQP
# T3 sequence (P08631 78-526 T333F limits assumed): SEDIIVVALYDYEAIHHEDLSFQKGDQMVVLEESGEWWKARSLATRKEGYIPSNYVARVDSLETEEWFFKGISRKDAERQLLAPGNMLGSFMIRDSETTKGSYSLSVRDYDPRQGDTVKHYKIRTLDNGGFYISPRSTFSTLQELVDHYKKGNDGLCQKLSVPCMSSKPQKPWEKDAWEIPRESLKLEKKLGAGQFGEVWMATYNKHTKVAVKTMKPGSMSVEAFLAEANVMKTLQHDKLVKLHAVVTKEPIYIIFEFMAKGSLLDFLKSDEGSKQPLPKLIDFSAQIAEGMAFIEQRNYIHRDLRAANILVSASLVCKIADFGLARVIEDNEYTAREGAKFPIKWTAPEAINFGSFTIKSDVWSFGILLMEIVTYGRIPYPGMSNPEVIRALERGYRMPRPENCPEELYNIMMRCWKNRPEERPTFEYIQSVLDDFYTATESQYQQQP
# T4 sequence (P08631 78-526 T333M limits assumed): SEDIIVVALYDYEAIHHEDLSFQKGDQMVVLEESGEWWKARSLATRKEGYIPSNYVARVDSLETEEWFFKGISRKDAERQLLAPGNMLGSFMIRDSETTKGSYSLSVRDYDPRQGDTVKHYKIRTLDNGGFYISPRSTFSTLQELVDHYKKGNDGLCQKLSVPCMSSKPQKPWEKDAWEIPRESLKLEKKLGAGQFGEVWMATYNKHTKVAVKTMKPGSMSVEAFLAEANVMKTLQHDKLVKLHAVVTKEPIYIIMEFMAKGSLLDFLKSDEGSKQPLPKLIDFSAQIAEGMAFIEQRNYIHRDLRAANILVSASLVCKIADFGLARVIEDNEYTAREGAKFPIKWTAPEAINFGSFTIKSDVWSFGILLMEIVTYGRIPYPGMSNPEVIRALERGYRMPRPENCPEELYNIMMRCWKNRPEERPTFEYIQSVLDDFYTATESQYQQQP
# T11 sequence (P07948 63-512 limits assumed): as the sequence (P07948 63-512 T319M limits assumed) above, with M257T counted along it
# T8 sequence (P08631 78-526 limits assumed): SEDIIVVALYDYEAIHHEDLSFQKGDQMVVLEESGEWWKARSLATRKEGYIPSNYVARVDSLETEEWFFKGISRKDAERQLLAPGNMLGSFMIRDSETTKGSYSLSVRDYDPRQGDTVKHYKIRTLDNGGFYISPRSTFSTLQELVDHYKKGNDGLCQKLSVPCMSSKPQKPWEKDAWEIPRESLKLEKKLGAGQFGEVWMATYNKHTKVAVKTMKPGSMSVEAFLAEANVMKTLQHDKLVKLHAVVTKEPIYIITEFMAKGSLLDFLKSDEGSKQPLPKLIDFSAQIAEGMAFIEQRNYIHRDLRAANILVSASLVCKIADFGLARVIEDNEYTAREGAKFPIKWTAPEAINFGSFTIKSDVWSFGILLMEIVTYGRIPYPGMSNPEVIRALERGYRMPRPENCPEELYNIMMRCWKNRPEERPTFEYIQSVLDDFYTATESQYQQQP
# T10 sequence (P07948 63-512 T319L limits assumed): as the sequence (P07948 63-512 T319M limits assumed) above, with M257L counted along it
# T5 sequence (P07948 63-512 T319F limits assumed): as the sequence (P07948 63-512 T319M limits assumed) above, with M257F counted along it
compound,measurement,setting,value
NC(=O)c1cnc(N[C@@H]2CCCC[C@@H]2N)nc1Nc1cccc(-n2nccn2)c1 [PRT062607],IC50,"[1]; Homo sapiens, all three parent AML cell lines and their resistant counterparts, read-out: IC50 values for growth suppression",0.5 to 2 µM
same,effect of added Syk inhibitor on sensitivity to A-419259,"[1]; fixed concentrations 50, 100 and 200 μM, 72 h, exception MV4-11 R2",did not affect
same,IC50,[2],1640 ± 154 nM
same,IC50,[3],1200 ± 128 nM
same,IC50,[4],795 ± 128 nM
same,IC50,[5],1720 ± 93.5 nM
same,IC50,[6],2030 ± 1090 nM
same,IC50,[7],1990 ± 377 nM
same,IC50,MOLM13 cells (parent),1380 ± 124 nM
same,IC50,MOLM14 cells (parent),1330 ± 183 nM
same,IC50,MV4-11 cells (parent),453 ± 90.7 nM
CC(C)(C)c1cc(NC(=O)Nc2ccc(-c3cn4c(n3)sc3cc(OCCN5CCOCC5)ccc34)cc2)no1 [quizartinib],inhibition of myeloid Src-family kinases,[8],does not inhibit
Nc1ncnc2c1ncn2[C@@H]1O[C@H](COP(=O)(O)OP(=O)(O)OP(=O)(O)O)[C@@H](O)[C@H]1O [ATP],Km,Fgr T338L,10 µM
same,Km,Lyn T338M,7 µM
same,Km,Hck T338F,42 µM
same,Km,Hck T338M,6.9 µM
same,Km,Lyn T338F,87.3 µM
same,Km,Fgr wild-type,17.9 µM
same,Km,Fgr T338F,95.7 µM
same,Km,Hck wild-type,26 µM
same,Km,Fgr T338M,5.3 µM
same,Km,Lyn T338L,24 µM
same,Km,Lyn wild-type,32.8 µM
same,Km,Hck T338L,17.2 µM
